“Also recorded” adds a separate entry of the source.
Tests used:
[1] = tested on: exocrine pancreatic tumor; test: Treating a patient having pancreatic cancer with SGRM and nab-paclitaxel (Example 3, hypothetical); format: in vivo, human; settings: 200 mg once a day for eight weeks with nab-paclitaxel 80 mg per square meter on days 1, 8, 15 of 28-day cycle; end of the treatment period
Description: A typical pancreatic patient may complain of upper abdomen pain that typically radiates to the back. Such a patient may experience loss of appetite, nausea and vomiting episodes, and may suffer significant weight loss. A CT scan may show the presence of a tumor in the pancreas. The presence of an exocrine pancreatic tumor may be confirmed by histological analysis. Blood ACTH level may be within the normal range for ACTH. Such a patient may be treated with CORT125134 at a dose of 200 mg once a day for eight weeks in combination with an intravenous infusion of nab-paclitaxel at a dose of 80 mg per square meter of body-surface area as an intravenous infusion over 30 minutes on days 1, 8, and 15 of every 28-day cycle. Tumor load may be monitored using enhanced MRI before, during and after such treatment. Imaging results may indicate that the size of the tumor gradually decreases; such reduction may be more than 50% at the end of the treatment period.

[2] = tested on: Human Pancreatic carcinoma cells (MIA-PaCa-2); test: MIA-PaCa-2 xenograft tumor growth in mice, SGRM combined with paclitaxel; format: in vivo, mice (Balbc/c nude); settings: SGRM 30 mg/kg orally on day prior to and same day as paclitaxel 7.5 mg/kg intravenously Q4D; MIA-PaCa-2 subcutaneous tumors
Description: Human Pancreatic carcinoma cells (MIA-PaCa-2) were purchased from the American Type Cell Collection (ATCC). The cells were grown in Dulbecco's Modified Eagle's Medium (DMEM) containing 10% (v/v) heat inactivated fetal calf serum and 2.5% horse serum at 37° C. Suspensions of the cells were injected subcutaneously into the left flank of 5-6 week old immunocompromised female mice (Balbc/c nude), 3 million cells per mouse. Tumors were allowed to grow until they reach a volume of 100-200 cubic millimeters (mm^3). Mice were then grouped into four groups, ten (10) per group, and treated with compounds or vehicle as follows. Vehicle or paclitaxel was administered intravenously and SGRMs, i.e., CORT25134 and CORT125281, were administered orally. SGRMs were administered in vehicle ((10% dimethyl sulfoxide (DMSO), 0.1% Tween 80 (polyethylene glycol sorbitan monooleate (polysorbate 80)) and 89.9% hydroxypropyl methylcellulose (HPMC) (0.5%)). Group 1 was dosed with the compound vehicle (10% DMSO, 0.1% Tween 80 and 89.9% HPMC (0.5%)) daily. Group 2 was dosed with paclitaxel at 7.5 mg/kg, every four days (“Q4D”). Group 3 was dosed with both paclitaxel at 7.5 mg/kg Q4D and CORT125134 at 30 mg/kg on the day prior to and the same day as the day paclitaxel was administered. Group 4 was dosed with both paclitaxel at 7.5 mg/kg Q4D and CORT125281 at 30 mg/kg on the day prior to and the same day as the day paclitaxel was administered.
The longest (L) and shortest (S) diameters of the tumors were measured three times a week with electronic calipers and tumor volume was calculated using the formula […], where a and b are the long and short diameters of the tumor, respectively. The tumor growth data are shown in The FIGURE, in which the mean tumor volume as compared to the mean pre-dosing tumor volume for each group of mice is plotted against the number of days of tumor growth since initiation of the treatment.

[3] = tested on: metastatic adenocarcinoma of the pancreas; test: Clinical study of CORT125134 with nab-paclitaxel in a patient with advanced pancreatic cancer (Example 4); format: in vivo, human
Description: A patient with a diagnosis of metastatic adenocarcinoma of the pancreas participated in a clinical study evaluating the efficacy of daily administration of 100 mg of the GR antagonist CORT125134 in combination with nab-paclitaxel infusions weekly for three out of four weeks per cycle. A tumor tissue sample obtained during or prior to the patient's previous treatments was found by immunohistochemistry to have high GR expression, with 90 percent of the cells staining for GR and with a large percentage staining with high intensity. Prior to receiving this combined GR antagonist and nab-paclitaxel treatment, the patient had previously received treatment with multiple lines of chemotherapy: gemcitabine monotherapy; eight months of combination chemotherapy treatment with 5-fluorouracil, leucovorin, irinotecan and oxaliplatin (FOLFIRINOX treatment); five months of treatment with gemcitabine combined with nab-paclitaxel; and four months of combination chemotherapy treatment with 5-fluorouracil, leucovorin, and irinotecan hydrochloride (FOLFIRI treatment). These prior treatments were unsuccessful: the patient's cancer progressed despite these prior chemotherapy treatments.
This patient has so far received 8 months (8 cycles) of the combined treatment of daily 100 mg CORT125134 in combination with nab-paclitaxel infusions weekly for three out of four weeks per cycle. […] When scanned again one month later, the tumor volume was still reduced by approximately 40% compared to baseline volume, thus confirming the PR status. […] The patient remains on the treatment, and continues to tolerate the treatment well.

Cn1cc(S(=O)(=O)N2CCC3=Cc4c(cnn4-c4ccc(F)cc4)C[C@]3(C(=O)c3cc(C(F)(F)F)ccn3)C2)cn1 [CORT125134, (R)-(1-(4-fluorophenyl)-6-((1-methyl-1H-pyrazol-4-yl)sulfonyl)-4,4a,5,6,7,8-hexahydro-1H-pyrazolo[3,4-g]isoquinolin-4a-yl)(4-(trifluoromethyl)pyridin-2-yl)methanone]
reduction of the size of the tumor (enhanced MRI) [1]: more than 50%
tumor growth (mean tumor volume compared to mean pre-dosing tumor volume), combination versus paclitaxel group [2]: superior to the paclitaxel group in reducing tumor growth
tumor growth reduction, comparison among treatment groups [2]: most significant tumor growth reduction
clinical response ([3]; daily 100 mg CORT125134 with nab-paclitaxel infusions weekly three out of four weeks per cycle, 8 months (8 cycles), one patient): partial response (PR); also recorded: sustained partial response
tolerability of the treatment ([3]; daily 100 mg CORT125134 with nab-paclitaxel infusions, 8 months, one patient): tolerated the treatment reasonably well; also recorded: tolerated the treatment with CORT125134 and nab-paclitaxel well
tumor volume reduction compared to baseline volume (CT scans) ([3]; scanned again one month after the third month, daily 100 mg CORT125134 with nab-paclitaxel): approximately 40%
tumor volume reduction compared to baseline (scan) ([3]; seventh month of treatment, daily 100 mg CORT125134 with nab-paclitaxel, one patient): 40%
tumor volume reduction compared to start of study (CT scans) ([3]; third month/cycle of treatment, daily 100 mg CORT125134 with nab-paclitaxel, one patient): approximately 40%

Cn1ncc(S(=O)(=O)N2CC[C@H]3Cc4c(cnn4-c4ccc(F)cc4)C[C@]3(C(=O)c3cc(C(F)(F)F)ccn3)C2)n1 [CORT125281, ((4aR,8aS)-1-(4-fluorophenyl)-6-((2-methyl-2H-1,2,3-triazol-4-yl)sulfonyl)-4,4a,5,6,7,8,8a,9-octahydro-1H-pyrazolo[3,4-g]isoquinolin-4a-yl)(4-(trifluoromethyl)pyridin-2-yl)methanone]
tumor growth (mean tumor volume compared to mean pre-dosing tumor volume), combination versus paclitaxel group [2]: superior to the paclitaxel group in reducing tumor growth

Reference: US12370175B2, “Glucocorticoid receptor modulators to treat pancreatic cancer” (Corcept Therapeutics, Inc., priority 2016, dated 2025)
